From patent US11135234B2, “Effective aminoglycoside antibiotic for multidrug-resistant bacteria” (MICROBIAL CHEMISTRY RESEARCH FOUNDATION, priority 2015, dated 2021)
In brackets after ≈: the same amount, converted by molar mass.

Key:
S. aureus RN4220 = test: MIC, agar plate dilution method, S. aureus RN4220; assay type: cell-based, Staphylococcus aureus; conditions: for MIC: Staphylococcus aureus, RN4220, S. aureus RN4220, Sensitive bacterium, read-out: minimal inhibitory concentration (MIC); for minimal inhibitory concentration (MIC): S. aureus RN4220, Sensitive bacterium
Procedure, shortened: (§1)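 Agar plate dilution per Japan Society of Chemotherapy standard; read-out = MIC in μg/mL.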

S. aureus RN4220/pMS520 = test: MIC, agar plate dilution method, S. aureus RN4220/pMS520; assay type: cell-based, Staphylococcus aureus; conditions: for MIC: Staphylococcus aureus, MRSA, read-out: minimal inhibitory concentration (MIC), S. aureus RN4220/pMS520, MRSA; for minimal inhibitory concentration (MIC): S. aureus RN4220/pMS520, MRSA
Procedure, shortened: as §1

S. aureus MF490 = test: MIC, agar plate dilution method, S. aureus MF490; assay type: cell-based, Staphylococcus aureus; conditions: for MIC: Staphylococcus aureus, MRSA, read-out: minimal inhibitory concentration (MIC); for minimal inhibitory concentration (MIC): S. aureus MF490, MRSA
Procedure, shortened: as §1

E. faecium ATCC19434 = test: MIC, agar plate dilution method, E. faecium ATCC19434; assay type: cell-based, Enterococcus faecium; conditions: for MIC: Enterococcus faecium, ATCC19434, E. faecium ATCC19434, read-out: minimal inhibitory concentration (MIC); for minimal inhibitory concentration (MIC): E. faecium ATCC19434
Procedure, shortened: as §1

E. coli JM109/pMW218 = test: MIC, agar plate dilution method, E. coli JM109/pMW218; assay type: cell-based, Escherichia coli; conditions: for MIC: Escherichia coli, JM109/PMW218, E. coli JM109/pMW218, Sensitive bacterium, read-out: minimal inhibitory concentration (MIC); for minimal inhibitory concentration (MIC): E. coli JM109/pMW218, Sensitive bacterium
Procedure, shortened: as §1

[1] = system: K. pneumoniae ATCC BAA-1705; test: MIC, agar plate dilution method, K. pneumoniae ATCC BAA-1705; assay type: cell-based, Klebsiella pneumoniae; conditions: for MIC: Klebsiella pneumoniae, ATCCBAA1705, K. pneumoniae ATCC BAA-1705, KPC-producing strain, read-out: minimal inhibitory concentration (MIC); for minimal inhibitory concentration (MIC): K. pneumoniae ATCC BAA-1705, KPC-producing strain
Procedure, shortened: as §1

[2] = system: K. pneumoniae ATCC BAA-2146; test: MIC, agar plate dilution method, K. pneumoniae ATCC BAA-2146; assay type: cell-based, Klebsiella pneumoniae; conditions: for MIC: Klebsiella pneumoniae, ATCCBAA2146, K. pneumoniae ATCC BAA-2146, NDM-producing strain, read-out: minimal inhibitory concentration (MIC); for minimal inhibitory concentration (MIC): K. pneumoniae ATCC BAA-2146, NDM-producing strain
Procedure, shortened: as §1

[3] = system: A. baumannii ATCC BAA-1710; test: MIC, agar plate dilution method, A. baumannii ATCC BAA-1710; assay type: cell-based, Acinetobacter baumannii; conditions: for MIC: Acinetobacter baumannii, ATCCBAA1710, A. baumannii ATCC BAA-1710, MDRA, read-out: minimal inhibitory concentration (MIC); for minimal inhibitory concentration (MIC): A. baumannii ATCC BAA-1710, MDRA
Procedure, shortened: as §1

S. marcescens TH-0447 = test: MIC, agar plate dilution method, S. marcescens TH-0447; assay type: cell-based, Serratia marcescens; conditions: for MIC: Serratia marcescens, TH0447, S. marcescens TH-0447, AMK-resistant, read-out: minimal inhibitory concentration (MIC); for minimal inhibitory concentration (MIC): S. marcescens TH-0447, AMK-resistant
Procedure, shortened: as §1

S. marcescens GN6944 = test: MIC, agar plate dilution method, S. marcescens GN6944; assay type: cell-based, Serratia marcescens; conditions: S. marcescens GN6944, GM-resistant; for MIC: Serratia marcescens, read-out: minimal inhibitory concentration (MIC)
Procedure, shortened: as §1

P. aeruginosa PAO1 = test: MIC, agar plate dilution method, P. aeruginosa PAO1; assay type: cell-based, Pseudomonas aeruginosa; conditions: for MIC: Pseudomonas aeruginosa, PAO1, P. aeruginosa PAO1, Sensitive bacterium, read-out: minimal inhibitory concentration (MIC); for minimal inhibitory concentration (MIC): P. aeruginosa PAO1, Sensitive bacterium
Procedure, shortened: as §1

P. aeruginosa PAO1/GN315 = test: MIC, agar plate dilution method, P. aeruginosa PAO1/GN315; assay type: cell-based, Pseudomonas aeruginosa; conditions: for MIC: Pseudomonas aeruginosa, read-out: minimal inhibitory concentration (MIC), P. aeruginosa PAO1/GN315, AMK-resistant; for minimal inhibitory concentration (MIC): P. aeruginosa PAO1/GN315, AMK-resistant
Procedure, shortened: as §1

P. aeruginosa MSC17707 = test: MIC, agar plate dilution method, P. aeruginosa MSC17707; assay type: cell-based, Pseudomonas aeruginosa; conditions: for MIC: Pseudomonas aeruginosa, MSC17707, P. aeruginosa MSC17707, AMK-resistant, read-out: minimal inhibitory concentration (MIC); for minimal inhibitory concentration (MIC): P. aeruginosa MSC17707, AMK-resistant
Procedure, shortened: as §1

P. aeruginosa MSC01035 = test: MIC, agar plate dilution method, P. aeruginosa MSC01035; assay type: cell-based, Pseudomonas aeruginosa; conditions: P. aeruginosa MSC01035, ABK-resistant; for MIC: Pseudomonas aeruginosa, read-out: minimal inhibitory concentration (MIC)
Procedure, shortened: as §1

## CNC1C(O[C@H]2OC(CO)[C@@H](NC(=O)[C@@H](C)N)[C@H](O)C2O)O[C@H]2CC(N)[C@@H](O[C@@H]3C(N)C[C@@H](N)C(O)[C@H]3O)OC2C1O (stereo partly drawn) [Compound V1-d, 4″-N-(D-alanyl)apramycin]
S. aureus RN4220
  MIC: 4 µg/mL (≈ 6.55 µM)
S. aureus RN4220/pMS520
  MIC: 4 µg/mL (≈ 6.55 µM)
S. aureus MF490
  MIC: 16 µg/mL (≈ 26.2 µM)
E. faecium ATCC19434
  MIC: 64 µg/mL (≈ 105 µM)
E. coli JM109/pMW218
  MIC: 2 µg/mL (≈ 3.28 µM)
[1]
  MIC: 2 µg/mL (≈ 3.28 µM)
[2]
  MIC: 2 µg/mL (≈ 3.28 µM)
[3]
  MIC: 8 µg/mL (≈ 13.1 µM)
S. marcescens TH-0447
  MIC: 16 µg/mL (≈ 26.2 µM)
S. marcescens GN6944
  MIC: 8 µg/mL (≈ 13.1 µM)
P. aeruginosa PAO1
  MIC: 4 µg/mL (≈ 6.55 µM)
P. aeruginosa PAO1/GN315
  MIC: 8 µg/mL (≈ 13.1 µM)
P. aeruginosa MSC17707
  MIC: 8 µg/mL (≈ 13.1 µM)
P. aeruginosa MSC01035
  MIC: 8 µg/mL (≈ 13.1 µM)

## CNC1C(O[C@H]2OC(CO)[C@@H](NC(=O)[C@@H](N)CO)[C@H](O)C2O)O[C@H]2CC(N)[C@@H](O[C@@H]3C(N)C[C@@H](N)C(O)[C@H]3O)OC2C1O (stereo partly drawn) [Compound V1-e, 4″-N-(L-seryl)apramycin]
S. aureus RN4220
  MIC: 8 µg/mL (≈ 12.8 µM)
S. aureus RN4220/pMS520
  MIC: 8 µg/mL (≈ 12.8 µM)
S. aureus MF490
  MIC: 32 µg/mL (≈ 51.1 µM)
E. faecium ATCC19434
  MIC: 64 µg/mL (≈ 102 µM)
E. coli JM109/pMW218
  MIC: 2 µg/mL (≈ 3.19 µM)
[1]
  MIC: 4 µg/mL (≈ 6.38 µM)
[2]
  MIC: 2 µg/mL (≈ 3.19 µM)
[3]
  MIC: 16 µg/mL (≈ 25.5 µM)
S. marcescens TH-0447
  MIC: 16 µg/mL (≈ 25.5 µM)
S. marcescens GN6944
  MIC: 8 µg/mL (≈ 12.8 µM)
P. aeruginosa PAO1
  MIC: 8 µg/mL (≈ 12.8 µM)
P. aeruginosa PAO1/GN315
  MIC: 8 µg/mL (≈ 12.8 µM)
P. aeruginosa MSC17707
  MIC: 8 µg/mL (≈ 12.8 µM)
P. aeruginosa MSC01035
  MIC: 8 µg/mL (≈ 12.8 µM)

## CN[C@@H]1[C@@H](O[C@H]2O[C@H](CO)[C@@H](NC(=O)[C@H](N)CO)[C@H](O)[C@H]2O)O[C@H]2C[C@@H](N)[C@@H](O[C@H]3[C@H](O)[C@@H](O)[C@H](N)C[C@@H]3N)O[C@@H]2[C@@H]1O [Compound V1-f, 4″-N-(D-seryl)apramycin]
S. aureus RN4220
  minimal inhibitory concentration (MIC): 8 µg/mL (≈ 12.8 µM)
S. aureus RN4220/pMS520
  minimal inhibitory concentration (MIC): 8 µg/mL (≈ 12.8 µM)
S. aureus MF490
  minimal inhibitory concentration (MIC): 32 µg/mL (≈ 51.1 µM)
E. faecium ATCC19434
  minimal inhibitory concentration (MIC): 64 µg/mL (≈ 102 µM)
E. coli JM109/pMW218
  minimal inhibitory concentration (MIC): 2 µg/mL (≈ 3.19 µM)
[1]
  minimal inhibitory concentration (MIC): 4 µg/mL (≈ 6.38 µM)
[2]
  minimal inhibitory concentration (MIC): 2 µg/mL (≈ 3.19 µM)
[3]
  minimal inhibitory concentration (MIC): 8 µg/mL (≈ 12.8 µM)
S. marcescens TH-0447
  minimal inhibitory concentration (MIC): 16 µg/mL (≈ 25.5 µM)
S. marcescens GN6944
  minimal inhibitory concentration (MIC): 16 µg/mL (≈ 25.5 µM)
P. aeruginosa PAO1
  minimal inhibitory concentration (MIC): 4 µg/mL (≈ 6.38 µM)
P. aeruginosa PAO1/GN315
  minimal inhibitory concentration (MIC): 8 µg/mL (≈ 12.8 µM)
P. aeruginosa MSC17707
  minimal inhibitory concentration (MIC): 8 µg/mL (≈ 12.8 µM)
P. aeruginosa MSC01035
  minimal inhibitory concentration (MIC): 8 µg/mL (≈ 12.8 µM)

## CNC1C(O[C@H]2OC(CO)[C@@H](NC(=O)CCN)[C@H](O)C2O)O[C@H]2CC(N)[C@@H](O[C@@H]3C(N)C[C@@H](N)C(O)[C@H]3O)OC2C1O (stereo partly drawn) [Compound V1-g, 4″-N-(β-alanyl)apramycin]
S. aureus RN4220
  MIC: 4 µg/mL (≈ 6.55 µM)
S. aureus RN4220/pMS520
  MIC: 2 µg/mL (≈ 3.28 µM)
S. aureus MF490
  MIC: 8 µg/mL (≈ 13.1 µM)
E. faecium ATCC19434
  MIC: 32 µg/mL (≈ 52.4 µM)
E. coli JM109/pMW218
  MIC: 1 µg/mL (≈ 1.64 µM)
[1]
  MIC: 2 µg/mL (≈ 3.28 µM)
[2]
  MIC: 1 µg/mL (≈ 1.64 µM)
[3]
  MIC: 8 µg/mL (≈ 13.1 µM)
S. marcescens TH-0447
  MIC: 16 µg/mL (≈ 26.2 µM)
S. marcescens GN6944
  MIC: 8 µg/mL (≈ 13.1 µM)
P. aeruginosa PAO1
  MIC: 4 µg/mL (≈ 6.55 µM)
P. aeruginosa PAO1/GN315
  MIC: 4 µg/mL (≈ 6.55 µM)
P. aeruginosa MSC17707
  MIC: 4 µg/mL (≈ 6.55 µM)
P. aeruginosa MSC01035
  MIC: 4 µg/mL (≈ 6.55 µM)

## CNC1C(O[C@H]2OC(CO)[C@@H](NC(=O)[C@@H](O)CN)[C@H](O)C2O)O[C@H]2CC(N)[C@@H](O[C@@H]3C(N)C[C@@H](N)C(O)[C@H]3O)OC2C1O (stereo partly drawn) [Compound V1-h, 4″-N-(L-isoseryl)apramycin]
S. aureus RN4220
  MIC: 4 µg/mL (≈ 6.38 µM)
S. aureus RN4220/pMS520
  MIC: 4 µg/mL (≈ 6.38 µM)
S. aureus MF490
  MIC: 8 µg/mL (≈ 12.8 µM)
E. faecium ATCC19434
  MIC: 32 µg/mL (≈ 51.1 µM)
E. coli JM109/pMW218
  MIC: 2 µg/mL (≈ 3.19 µM)
[1]
  MIC: 2 µg/mL (≈ 3.19 µM)
[2]
  MIC: 2 µg/mL (≈ 3.19 µM)
[3]
  MIC: 8 µg/mL (≈ 12.8 µM)
S. marcescens TH-0447
  MIC: 16 µg/mL (≈ 25.5 µM)
S. marcescens GN6944
  MIC: 8 µg/mL (≈ 12.8 µM)
P. aeruginosa PAO1
  MIC: 16 µg/mL (≈ 25.5 µM)
P. aeruginosa PAO1/GN315
  MIC: 8 µg/mL (≈ 12.8 µM)
P. aeruginosa MSC17707
  MIC: 4 µg/mL (≈ 6.38 µM)
P. aeruginosa MSC01035
  MIC: 4 µg/mL (≈ 6.38 µM)

## CNCC(=O)N[C@@H]1C(CO)O[C@H](OC2O[C@H]3CC(N)[C@@H](O[C@@H]4C(N)C[C@@H](N)C(O)[C@H]4O)OC3C(O)C2NC)C(O)[C@H]1O (stereo partly drawn) [Compound V1-j, 5-epi-4″-N-sarcosylapramycin]
S. aureus RN4220
  minimal inhibitory concentration (MIC): 2 µg/mL (≈ 3.28 µM)
S. aureus RN4220/pMS520
  minimal inhibitory concentration (MIC): 2 µg/mL (≈ 3.28 µM)
S. aureus MF490
  minimal inhibitory concentration (MIC): 4 µg/mL (≈ 6.55 µM)
E. faecium ATCC19434
  minimal inhibitory concentration (MIC): 8 µg/mL (≈ 13.1 µM)
E. coli JM109/pMW218
  minimal inhibitory concentration (MIC): 1 µg/mL (≈ 1.64 µM)
[1]
  minimal inhibitory concentration (MIC): 1 µg/mL (≈ 1.64 µM)
[2]
  minimal inhibitory concentration (MIC): 1 µg/mL (≈ 1.64 µM)
[3]
  minimal inhibitory concentration (MIC): 8 µg/mL (≈ 13.1 µM)
S. marcescens TH-0447
  minimal inhibitory concentration (MIC): 8 µg/mL (≈ 13.1 µM)
S. marcescens GN6944
  minimal inhibitory concentration (MIC): 8 µg/mL (≈ 13.1 µM)
P. aeruginosa PAO1
  minimal inhibitory concentration (MIC): 2 µg/mL (≈ 3.28 µM)
P. aeruginosa PAO1/GN315
  minimal inhibitory concentration (MIC): 4 µg/mL (≈ 6.55 µM)
P. aeruginosa MSC17707
  minimal inhibitory concentration (MIC): 2 µg/mL (≈ 3.28 µM)
P. aeruginosa MSC01035
  minimal inhibitory concentration (MIC): 4 µg/mL (≈ 6.55 µM)
